Measurements reported in patent US11124479B2, “Oligopyrroles as antagonists of islet amyloid polypeptide oligomerization” (New York University, priority 2017, dated 2021).
Each block holds one compound with its values, some of them ahead of it.

Legend:
[1] = target: T1, islet amyloid polypeptide (IAPP) (Homo sapiens, UniProt P10997); assay: ThT-based kinetic assay of IAPP fibrillation; format: biochemical; details: for relative t50 of IAPP fibrillation versus control reaction / inhibition of IAPP fibrillation (in words): 15 μM IAPP, equimolar ratio; for inhibition of IAPP fibrillation (in words): FIG. 2C; for inhibition capacity towards IAPP fibrillation (in words): ThT assays under our conditions
T1 construct: IAPP is a 37 residue neuropancreatic hormone peptide; purchased Anaspec (Fremont, Calif.)
T1 sequence (P10997 34-70 limits assumed): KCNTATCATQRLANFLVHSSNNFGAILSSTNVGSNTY
Excerpt: The aggregation kinetics of IAPP was probed using an exogenous reporter, Thioflavin T (ThT), which quantifies the amount of fibers in solution without perturbing the aggregation kinetics of IAPP (see Wolfe, L. S.; Calabrese, M. F.; Nath, A.; Blaho, D. V.; Miranker, A. D.; Xiong, Y. Proc. Natl. Acad. Sci. U.S.A. 2010, 107, 16863-16868; Levine, H. Protein Sci. 1993, 2, 404-410). […] The kinetics of IAPP fibrillation was quantified using the reaction midpoint, t50, which is the time required to reach 50% fluorescence in the fibrillation reaction (FIG. 8).
Kinetic assays were conducted on a FlexStation 3 Multi-Mode Microplate reader from Molecular Devices (Sunnyvale, Calif.). Experiments were conducted in triplicate in a 96-well plate with a final volume of 200 μL per well. Every measurement was an average of 50 readings. The aggregation of IAPP was initiated by its addition from a stock solution (1 mM in DMSO) to phosphate buffer. The stoichiometry ratio for ThT to IAPP was 0.5:1. Peptide aggregation was monitored by ThT fluorescence (λex=445 nm and λem=485 nm). The blank sample contained all the components of the peptide samples except peptide. The sample data were processed by subtracting the blank and renormalizing the fluorescence intensity by setting the maximum value to 1.
Kinetic assays in the presence of the compounds of the invention were conducted under the same conditions. Small molecules were added from a stock solution (1 mM or 10 mM in DMSO) to keep the final concentration of DMSO less than 1.0% (v/v). Small molecules were added to the wells with ThT and buffer and mixed gently with a pipette before adding IAPP. To keep the conditions identical, an equal amount of DMSO was added to the wells with IAPP only reactions. For the aggregation kinetics of Aβ42, the peptide was dissolved in 1N NaOH (0.5-1 mM) and vortexed for 2 min. to ensure the complete solubility. The aggregation of 3 μM Aβ42 was initiated by addition of peptide from a stock solution (in 1 N NaOH, 0.5-1 mM) to phosphate buffer.
Kinetic profiles were processed using Origin (version 9.1). Kinetic curves were fit using the built-in sigmoidal fit. Each run was fit independently to extract the t50 (time required to reach 50% of the maximum fluorescence intensity). Error bars represent standard deviations from the mean of at least three independent experiments.
The membrane model system selected for the amyloid assays is a mixture of DOPG (dioleoylphosphatidylglycerol) and DOPC (dioleoylphosphatidylcholine) at 3:7 molar ratio, which mimics physiological conditions (Ono, K.; Condron, M. M.; Teplow, D. B. Proc. Natl. Acad. Sci. U.S.A. 2009, 106, 14745-14750). The lipid catalyzed aggregation of IAPP was initiated by adding freshly prepared 15 μM IAPP (1 mM stock solution in DMSO) to the phosphate buffer (50 mM NaPi, 150 mM KCl, pH 7.4) containing 15 μM ThT and 750 μM of unilamellar liposomes (LUVs, DOPG:DOPC, 3:7, d=100 nm).

Partition coefficient = format: physicochemical
[2] = target: T2, IAPP-induced lipid membrane leakage (Homo sapiens, UniProt P10997); assay: Fluorescein-based liposome leakage assay; format: biochemical; details: 4 μM IAPP, equimolar ratio
T2 construct: IAPP is a 37 residue neuropancreatic hormone peptide; purchased Anaspec (Fremont, Calif.)
T2 sequence (P10997 34-70 limits assumed): T1 sequence (P10997 34-70 limits assumed)
Excerpt: Colocalization of IAPP at the mitochondrial membrane and the subsequent membrane poration is considered to be one of the potential contributors to β-cell toxicity. Therefore, a liposome leakage assay could serve as a surrogate marker for IAPP induced cytotoxicity (see Last, N. B.; Miranker, A. D. Proc. Natl. Acad. Sci. U.S.A. 2013, 110, 6382-6387; and Last, N. B.; Rhoades, E.; Miranker, A. D. Proc. Natl. Acad. Sci. U.S.A. 2011, 108, 9460-9465). A previously reported fluorescein-based liposome leakage assay was employed to test the effect of ADH-101 on membrane associated α-helical intermediates of IAPP. Briefly, fluorescein-dextran conjugate (MW=70 kDa) was encapsulated in unilamaller extruded lipid vesicles (DOPG:DOPC, 3:7, d=100 nm). The size of fluorescein-dextran conjugate allows it to stay inside the lipid vesicles during IAPP mediated membrane poration. The leakage kinetics was probed by the quenching of fluorescence using a fluorescent quencher, DPX (p-xylene-bis-pyridinium […]). The kinetic profiles of leakage are single exponential with a decrease in fluorescence as a function of time. The leakage reaction was initiated by introducing 200 μM liposome into a solution of 4 μM IAPP and 6 mM of DPX. The introduction of the excess ionic concentration by DPX was counterbalanced by adjusting the buffer concentration. The kinetics of the leakage mediated by IAPP yielded a single exponential profile with a leakage rate of 7.3±1.1×10^−3 s^−1 (FIG. 5A).
The kinetics of liposome leakage induced by IAPP was monitored on QuantaMaster C-61 fluorescence spectrometer (Photon Technology International, Edison, N.J.) at 25° C. […] The stock solution of IAPP used in the measurements was kept in water at a concentration of 1 mM. The stock solution of water soluble quencher, DPX (p-xylene-bis-pyridinium bromide) was prepared in buffer (100 mM KCl, 50 mM NaPi, pH 7.4) at a concentration of 100 mM. The small molecules used in the leakage assay were dissolved in DMSO with a concentration range of 10-20 mM. The final concentration of dye encapsulating liposome, DPX, human IAPP, and small molecules were 200, 6000, 4, and 4 μM respectively. The final buffer concentration was corrected using higher concentration of buffer to keep the osmolality balanced. […] To determine the leakage rate constant, first the fluorescence was normalized and corrected by subtracting it from normalized fluorescence of control reaction. The corrected fluorescence was fit using equation given below (using Origin 9.1). All the experiments were performed in triplicate and the error values presented are standard deviations. a*exp(−b*x)+c (2) a=amplitude from 100% unleaked to 0% leaked c=final fraction of unleaked liposome y=change in fluorescence b=leakage rate constant

[3] = lipid catalyzed (750 μM LUVs, DOPG:DOPC 3:7)

- relative t50 of IAPP fibrillation versus control reaction ([1]; de novo / lipid free): 2.6 fold
- relative t50 of IAPP fibrillation versus control reaction [1, 3]: 1.5 fold
SMILES: CCOC(=O)c1cc(NC(=O)c2cc(NC(=O)c3cc([N+](=O)[O-])cn3CC(C)C)cn2CC(C)C)cn1CC(C)C [ADH-105]

- inhibition of IAPP fibrillation (in words) [1]: ineffective
SMILES: CCOC(=O)c1cc([N+](=O)[O-])cn1CC(C)C [ADH-113]

- inhibition of IAPP fibrillation (in words) [1]: ineffective
SMILES: CCOC(=O)c1cc([N+](=O)[O-])cn1CCC(=O)O [ADH-117]

- antagonist of oligomerization, fibrillation, and/or aggregation of IAPP (in words) [1]: effective antagonist
SMILES: CCOC(=O)c1cc(NC(=O)c2cc(NC(=O)c3cc([N+](=O)[O-])cn3CCCc3ccccc3)cn2CC(C)C)cn1CCC(=O)O [ADH-120]

- relative t50 of IAPP fibrillation versus control reaction [1, 3]: 1.4 fold
SMILES: COC(=O)c1ccc(NC(=O)c2ccc(NC(=O)c3ccc([N+](=O)[O-])c(OCC(=O)O)n3)c(OCC(C)C)n2)c(OCC(C)C)n1 [ADH-201, reference compound]

- relative t50 of IAPP fibrillation versus control reaction [1, 3]: 1.9 fold
- logP (Partition coefficient): -0.8
SMILES: COC(=O)c1ccc(NC(=O)c2ccc(NC(=O)c3ccc([N+](=O)[O-])c(OCC(=O)O)n3)c(OCC(C)C)n2)c(OCC(=O)O)n1 [ADM-11, reference compound]

- inhibition capacity towards IAPP fibrillation (in words) [1]: moderate inhibition capacity
- effect on IAPP induced liposome leakage (in words) [2]: unable to effect
SMILES: CC1=C/C(=C(\c2ccc(N)c(S(=O)(=O)[O-])c2)c2ccc(N)c(S(=O)(=O)O)c2)C=C(S(=O)(=O)[O-])C1=N.[Na+].[Na+] [AF, Acid fuchsin, reference compound]

- inhibition capacity towards IAPP fibrillation (in words) [1]: moderate inhibition capacity
SMILES: COc1cc(/C=C/C(=O)CC(=O)/C=C/c2ccc(O)c(OC)c2)ccc1O [Curcumin]

- inhibition capacity towards IAPP fibrillation (in words) [1]: moderate inhibition capacity
- effect on IAPP induced liposome leakage (in words) [2]: unable to effect
SMILES: O=C(O[C@@H]1Cc2c(O)cc(O)cc2O[C@@H]1c1cc(O)c(O)c(O)c1)c1cc(O)c(O)c(O)c1 [EGCG, reference compound]
